{"source": "paper PMC9323733", "about": "“Efficacy of Vafidemstat in Experimental Autoimmune Encephalomyelitis Highlights the KDM1A/RCOR1/HDAC Epigenetic Axis in Multiple Sclerosis” (Pharmaceutics, 2022)", "key": {"[1]": {"test_system": "spinal cord and brain of EAE mice", "assay": "qRT-PCR validation of microarray biomarkers, spinal cord and brain of EAE mice", "format": "in vivo, mouse", "experimental": "We evaluated differences in gene expression induced by the treatment using real-time PCR and by microarray hybridization analysis. First, total RNA was isolated from brain and spinal cord segments from EAE mice using Qiazol™ and the RNeasy MiniKit™ extraction kit (Qiagen). Evaluation of RNA quality was performed with the Agilent 2100 bioanalyzer and NanoDrop™ ND-1000 (Thermo Scientific, Dartford, Kent, UK). After DNAse I treatment, RNA (1 µg/sample) was reverse transcribed using RevertAid First strand cDNA Synthesis kit (Fermentas) and random hexamer primers. For evaluating the expression of the inflammatory markers TNFα, IL-1β, IP10, IL-4, and CCL5, real time PCR was performed by using iQ SYBR Green Supermix (Bio-Rad, Feldkirchen, Germany) according to manufacturer’s instructions in a BIORAD CFX96 thermal cycler. Primer sequences and PCR conditions are indicated in Supplementary Materials Table S3. […]\nFor the gene expression studies, data from microarray assays were normalized by modified nonlinear Q-splines normalization method and Log2(Sample/Vehicle) values calculated without background correction (which permits robust selection of differentially expressed genes yet may lead to sub-estimation of the magnitude of change for genes expressed near the detection limit). Differential expression was assessed with the proprietary Polyphemus software using robust statistics on the average technical replicates (3 replicates/gene oligo datapoint) after removing eventual outlier points (caused by dust or array imperfections). […] The p values were calculated after outlier elimination based on the absolute value of the regularized t-statistics, which uses a Bayesian framework to derive the algorithm, using internal replicated controls to assess the minimum technical variability of the process. Correlation between gene expression changes induced by different treatments was analysed by calculating the Pearson correlation coefficient r using the Log2(Treatment/Veh) values for all genes expressed above background level (n). […]"}, "[2]": {"test_system": "lymphocytes", "assay": "GLP toxicological studies, lymphocyte count, dogs", "format": "in vivo, Beagle dogs", "settings": "mean ± SD", "text": "T r eat m e nt N Ly m p h o c y te s Equivalent m ou se d o se\n( mg /k g p. o. ga va g e) (109/ L ) ( mg /k g p.o ga va ge)\n6 m ont h s W i sta r r at s\n9 m ont h s Be ag le d og s\nEff ec t of t r ea t me nt wi t h O RY-2 00 1 a d mi ni st e r e d by or al ga va ge o n l y m ph oc yt e s ob se r ve d i n G LP\nt ox i c ol ogi c a l st udi e s i n r at a nd do g. A ni ma l s we r e t re a t e d or al l y (fi ve c o ns e c ut i ve da ys/ we e k) by ga va ge\n28 da ys or 6 mo nt hs ( ra t s) a nd 28 da ys or 9 mo nt hs (dogs). Data re prese nt de me a n ± S D. T he e q ui va l e n t\ndos e i n m o use i s i n di c at e d. 1-wa y A N OV A a n d D u n ne t t’ s M ul ti pl e C o m pa ri so n t e st wa s use d."}}}
{"smiles": "Nc1nnc(CN[C@@H]2C[C@H]2c2ccc(OCc3ccccc3)cc2)o1", "note": "[ORY-2001]", "values": [{"measurement": "Ttr upregulation in spinal cord, check by qRT-PCR", "setting": "[1]; increased pooled value came from a single outlier sample", "value": "discarded as a biomarker"}, {"measurement": "expression of Saa3, Aif1 and Gbp2 (qRT-PCR)", "setting": "[1]; spinal cord and brain, effector phase", "value": "downregulated the inflammatory biomarkers Saa3, Aif1 and Gbp2"}, {"measurement": "expression of Ccl5, Ip10 and Tnf-alpha (qRT-PCR)", "setting": "[1]; spinal cord and brain, sub-chronic period", "value": "downregulated"}, {"measurement": "Lymphocytes", "setting": "[2]; 9 months Beagle dogs, 0.025 mg/kg p.o. gavage (equivalent mouse dose 0.15)", "value": "2.10 ± 0.60 109/L"}, {"measurement": "Lymphocytes", "setting": "[2]; 9 months Beagle dogs, 0.075 mg/kg p.o. gavage (equivalent mouse dose 0.45)", "value": "2.90 ± 0.30 109/L"}, {"measurement": "Lymphocytes", "setting": "[2]; 9 months Beagle dogs, 0.150 mg/kg p.o. gavage (equivalent mouse dose 0.90)", "value": "2.75 ± 1.04 109/L"}, {"measurement": "Lymphocytes", "setting": "[2]; 28 d Beagle dogs, 0.025 mg/kg p.o. gavage (equivalent mouse dose 0.15)", "value": "3.31 ± 0.41 109/L"}, {"measurement": "Lymphocytes", "setting": "[2]; 28 d Beagle dogs, 0.075 mg/kg p.o. gavage (equivalent mouse dose 0.45)", "value": "2.88 ± 1.02 109/L"}, {"measurement": "Lymphocytes", "setting": "[2]; 28 d Beagle dogs, 0.225 mg/kg p.o. gavage (equivalent mouse dose 1.35)", "value": "4.33 ± 1.08 109/L"}]}
